Test [1] has as its target T1, activated human blood coagulation factor VII (Homo sapiens, UniProt P08709).
T1 construct: purchased Enzyme Research Laboratories Ltd. (FVIIa); American Diagnostica Laboratories Ltd. (tissue factor)
Nature of the test: Determination of antagonistic activity to activated human blood coagulation factor VII. Particulars: FVIIa mixed with tissue factor, substrate S-2288, pH 7.4, initial velocity; read-out: Antagonistic activity to activated blood coagulation factor VII (pIC50 ) (converted). Format: biochemical. The protocol: Determination of antagonistic activity to activated human blood coagulation factor VII:
100 nM solution of activated human blood coagulation factor VII (Enzyme Research Laboratories Ltd.) in pH 7.4 tris hydrochloride buffer solution was mixed with 100 nM solution of a tissue factor (American Diagnostica Laboratories Ltd.) in pH 7.4 tris hydrochloride buffer solution in equal amounts, and the obtained mixture was left to stand at room temperature for 30 minutes. 50 μl of 50 mM tris hydrochloride buffer solution having a pH adjusted to 7.4 was added to 5 μl of an aqueous solution of a compound to be tested. Then 10 μl of the previously prepared mixture of 50 nM of each of the solutions of activated human blood coagulation factor VII and tissue factor was added to the obtained mixture, and they were incubated at room temperature for 10 minutes. Then 25 μl of 3.2 mM solution of D-isoleucyl-L-prolyl-L-arginyl-P-nitroanilide hydrochloride (S-2288, Daiichi Pure Chemicals Co., Ltd.) in pH 7.4 tris hydrochloride buffer was added to the obtained mixture. The absorbance was determined and the initial reaction velocity was calculated. A control was prepared by using 5 μl of tris hydrochloride buffer adjusted to pH 7.4 in place of the solution of the compound to be tested. The absorbance was determined with MICROPLATE READER Model 3550-UV (BIO RAD) at a wavelength of 405 nm at intervals of […]. The negative logarithm (pIC50) of the concentration of the sample compound for the 50% inhibition of the activity (initial velocity) of the activated blood coagulation factor VII was determined, and it was employed as the index of the antagonistic activity to the activated blood coagulation factor VII.

The next test deals with T2, human thrombin (Homo sapiens, UniProt P00734).
T2 construct: solution of human thrombin (SIGMA Co. Ltd.); purchased SIGMA Co. Ltd
In words: Determination of antagonistic activity to human thrombin. Format: biochemical. As to conditions: substrate S-2238, pH 8.4, initial velocity, read-out: Antagonistic activity to thrombin (pIC50) (converted). The method, then: (2) Determination of Antagonistic Activity to Human Thrombin:
130 μl of 100 mM tris hydrochloride buffer adjusted at pH 8.4 was added to 10 μl of an aqueous solution of a sample compound having antagonistic activity to human thrombin. Then 10 μl of a solution of human thrombin (SIGMA Co. Ltd.) adjusted to 2 units/ml with pH 8.4 tris hydrochloride buffer was added to the obtained mixture, and they were incubated at room temperature for 10 minutes. 50 μl of a 0.4 mM solution of D-phenylalanyl-L-pipecolyl-L-arginyl-P-nitroanilide dihydrochloride (S-2238, Daiichi Pure Chemicals Co., Ltd.) in pH 8.4 tris hydrochloride buffer was added to the obtained mixture. The absorbance was determined and the initial reaction velocity was calculated. A control was prepared by using 10 μl of tris hydrochloride buffer adjusted to pH 8.4 in place of the solution of the compound to be tested. The absorbance was determined with MICROPLATE READER Model 3550-UV (BIO RAD) at a wavelength of 405 nm at intervals of 15 seconds for 6 minutes. The negative logarithm (pIC50) of the concentration of the sample compound for the 50% inhibition of the activity (initial velocity) of thrombin was determined, and it was employed as the index of the antagonistic activity to thrombin.

Structures can show the parent of a compound that is named as a salt. Some results are limits rather than exact numbers.

T1 sequence (P08709 213-466 limits assumed): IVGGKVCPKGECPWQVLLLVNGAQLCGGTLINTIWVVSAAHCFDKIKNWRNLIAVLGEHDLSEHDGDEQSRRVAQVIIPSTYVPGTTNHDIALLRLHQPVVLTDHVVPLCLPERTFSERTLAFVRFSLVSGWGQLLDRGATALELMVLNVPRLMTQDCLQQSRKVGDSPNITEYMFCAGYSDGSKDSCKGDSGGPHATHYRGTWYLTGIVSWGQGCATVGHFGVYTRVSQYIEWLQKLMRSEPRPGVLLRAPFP
T1 sequence (P08709 61-212 limits assumed): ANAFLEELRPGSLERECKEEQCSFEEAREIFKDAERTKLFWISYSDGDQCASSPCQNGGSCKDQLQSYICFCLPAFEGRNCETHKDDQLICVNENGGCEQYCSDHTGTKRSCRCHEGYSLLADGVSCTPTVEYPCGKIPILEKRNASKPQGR
T1 sequence (P13726 33-295 partner): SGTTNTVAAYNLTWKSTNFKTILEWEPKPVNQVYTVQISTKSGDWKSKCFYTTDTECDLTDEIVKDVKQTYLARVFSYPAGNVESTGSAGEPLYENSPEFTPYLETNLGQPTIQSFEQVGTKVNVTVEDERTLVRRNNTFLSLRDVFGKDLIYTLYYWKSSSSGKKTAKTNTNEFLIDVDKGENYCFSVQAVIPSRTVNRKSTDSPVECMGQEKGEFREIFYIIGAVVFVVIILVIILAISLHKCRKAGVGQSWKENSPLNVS

As to `N=C(N)c1ccc(CC(=O)C(=O)O)c(OC[C@@H](CCC(=O)O)NC(=O)c2cc3c(cc2Br)CCO3)c1` [Compound of Ex. 45, (4R)-4-[(5-Bromo-2,3-dihydrobenzo[b]furan-6-carbonyl)amino]-5-[5-amidino-2-(2-carboxy-2-oxoethyl)phenoxy]pentanoic acid trifluoroacetate], in test [1], the IC50 is 100 nM.
As for `N=C(N)Nc1ccc(C(=O)N[C@H](CCC(=O)O)COc2cc(C(=N)N)ccc2CC(=O)C(=O)O)cc1` [Compound of Ex. 23, (4R)-4-[(4-Guanidinobenzoyl)amino]-5-[5-amidino-2-(2-carboxy-2-oxoethyl)phenoxy]pentanoic acid bistrifluoroacetate], the results for the IC50 (on human thrombin; in test [1]) were greater than 100000 nM and 251 nM, respectively.
The like results for `N=C(N)c1ccc(CC(=O)C(=O)O)c(OCCNC(=O)c2ccc3nc(N)sc3c2)c1` [Compound of Ex. 39, 3-[4-Amidino-2-[2-(2-amino-benzothiazole-6-carbonyl)aminoethoxy]phenyl]-2-oxo-propionic acid trifluoroacetate] were, in that order, 39800 nM and 20 nM.
The like results for `N=C(N)c1ccc(CC(=O)C(=O)O)c(OCCNC(=O)c2ccc3nc(N)ccc3c2)c1` [Compound of Ex. 2, 3-[4-Amidino-2-[2-(2-aminoquinoline-6-carbonyl)aminoethoxy]phenyl]-2-oxopropionic acid bistrifluoroacetate] were, in that order, 31600 nM and 316 nM.
Regarding `COc1ccc(-c2ccccc2)cc1C(=O)N[C@H](CCC(=O)O)COc1cc(C(=N)N)ccc1CC(=O)C(=O)O` [Compound of Ex. 27, (4R)-4-(2-Methoxy-5-phenylbenzoylamino)-5-[5-amidino-2-(2-carboxy-2-oxoethyl)phenoxy]pentanoic acid trifluoroacetate], the IC50 in test [1] was 50.1 nM.
For the compound `Cc1nc2ccc(C(=O)N[C@H](CCC(=O)O)COc3cc(C(=N)N)ccc3CC(=O)C(=O)O)cc2[nH]1` [Compound of Ex. 4, (4R)-4-[(2-Methylbenzimidazole-5-carbonyl)amino]-5-[5-amidino-2-(2-carboxy-2-oxoethyl)phenoxy]pentanoic acid bistrifluoroacetate], the IC50 was greater than 100000 nM on human thrombin and 200 nM in test [1].
The corresponding values for `N=C(N)c1ccc(-c2cccc(C(=O)N[C@H](CCC(=O)O)COc3cc(C(=N)N)ccc3CC(=O)C(=O)O)c2)cc1` [Compound of Ex. 13, (4R)-4-[[3-(4-Amidinophenyl)benzoyl]amino]-5-[5-amidino-2-(2-carboxy-2-oxoethyl)phenoxy]pentanoic acid bistrifluoroacetate] are 7940 nM and 100 nM.
The corresponding values for `N=C(N)c1ccc(CC(=O)C(=O)O)c(OC[C@@H](CCC(=O)O)NC(=O)c2ccc3nc(N)ccc3c2)c1` [Compound of Ex. 1, (4R)-4-[(2-Aminoquinoline-6-carbonyl)amino]-5-[5-amidino-2-(2-carboxy-2-oxoethyl)phenoxy]pentanoic acid bistrifluoroacetate] are greater than 100000 nM and 126 nM.
The corresponding values for `N=C(N)c1ccc(CC(=O)C(=O)O)c(OC[C@@H](CCC(=O)O)NC(=O)c2ccc3nc(N)sc3c2)c1` [Compound of Ex. 28, (4R)-4-[(2-Aminobenzothiazole-6-carbonyl)amino]-5-[5-amidino-2-(2-carboxy-2-oxoethyl)phenoxy]pentanoic acid trifluoroacetate] are greater than 100000 nM and 5.01 nM.

The values above are taken from patent US6710056B2, “Amidinophenylpyruvic acid derivatives” (Ajinomoto Co., Inc., priority 1999, dated 2004).
